Test results from patent publication US10385080B2, “STAT6 inhibitors” (Board of Regents, The University of Texas System, priority 2013, dated 2019).

Tested on: Stat5
Assay: Selectivity: Stat5 phosphorylation in EGF-stimulated MDA-MB-468 cells
Assay type: cell-based
Conditions: serum starved MDA-MB-468 cells, 2 hr
Procedure: (§1) Compounds were screened at 5 μM for their ability to inhibit IL-4 stimulated phosphorylation of STAT6 in Beas-2B immortalized human airway cells. Cells were treated with prodrug for 2 hr and then stimulated with IL-4. After 30 min cells were lysed and pSTAT6 and total STAT6 were measured with western blots (FIG. 7). Without being bound by theory, the inhibition observed is consistent with compounds entering cells, being stripped of the POM groups, binding to the SH2 domain of STAT6, blocking binding to IL-4Rα and preventing phosphorylation of Tyr641. […] Compounds resulting in <10% residual phosphorylation were taken on to MTS cytotoxicity assays and dose response assays. (FIG. 8). The cyclic aromatic amides PM-63I, PM-80I, PM-81I, and PM-86I were very potent with IC50 values from 50-500 nM. […] With the exception of PM-43I, concentrations that inhibit STAT6 phosphorylation are 20-100 fold lower than those resulting in toxicity. STAT6 inhibitors were assayed for their ability to inhibit the phosphorylation of STAT 1, STAT 3, STAT 5, Akt, and FAK, all processes that depend on SH2 domain-phosphotyrosine interactions (Mandal, P. K. et al. 2011). Serum starved MDA-MB-468 breast cancer cells were treated with STAT6 inhibitors for 2 hr and then were stimulated with EGF (See FIGS. 9A and 9B).

Structure (SMILES)	cross reactivity with Stat5
C/C(=C\C(=O)N[C@H](C(=O)N1CCC[C@H]1C(=O)N1CCc2ccccc21)C(C)(C)C)c1ccc(C(F)(F)P(=O)(OCOC(=O)C(C)(C)C)OCOC(=O)C(C)(C)C)cc1 [PM-63I]	significant cross reactivity

Target: T1, STAT6 (Homo sapiens, UniProt P42226)
T1 sequence (P42226 1-847): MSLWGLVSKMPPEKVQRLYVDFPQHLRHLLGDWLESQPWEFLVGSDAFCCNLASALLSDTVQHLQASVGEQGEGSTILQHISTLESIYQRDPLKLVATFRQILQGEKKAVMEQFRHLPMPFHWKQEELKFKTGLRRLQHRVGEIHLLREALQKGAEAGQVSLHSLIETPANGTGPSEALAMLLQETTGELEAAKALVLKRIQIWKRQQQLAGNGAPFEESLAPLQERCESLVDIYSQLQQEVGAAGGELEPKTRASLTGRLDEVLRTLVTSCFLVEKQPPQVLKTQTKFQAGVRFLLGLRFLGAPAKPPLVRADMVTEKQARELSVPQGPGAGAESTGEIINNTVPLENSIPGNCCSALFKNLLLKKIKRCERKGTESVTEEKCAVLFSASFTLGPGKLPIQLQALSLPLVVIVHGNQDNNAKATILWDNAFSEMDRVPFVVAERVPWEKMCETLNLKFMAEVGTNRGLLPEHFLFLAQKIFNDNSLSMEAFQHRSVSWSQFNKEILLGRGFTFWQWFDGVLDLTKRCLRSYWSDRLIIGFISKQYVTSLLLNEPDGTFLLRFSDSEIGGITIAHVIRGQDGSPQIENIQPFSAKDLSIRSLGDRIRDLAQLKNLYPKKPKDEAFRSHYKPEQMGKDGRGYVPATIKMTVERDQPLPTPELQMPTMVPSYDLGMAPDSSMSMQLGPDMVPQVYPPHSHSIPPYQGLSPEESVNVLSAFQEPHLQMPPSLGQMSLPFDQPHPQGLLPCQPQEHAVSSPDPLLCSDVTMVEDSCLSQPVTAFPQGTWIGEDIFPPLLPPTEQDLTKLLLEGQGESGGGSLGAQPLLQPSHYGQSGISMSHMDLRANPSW
Assay: Fluorescence polarization competition with FAM-labelled IL-4Rα Tyr631 phosphopeptide for binding to STAT6
Conditions: other phosphate-containing STAT6 inhibitors; competition with FAM-Ala-pTyr-Lys-Pro-Phe-Gln-Asp-Leu-Ile-NH2
Source text: The following structures as phosphate esters were synthesized and assayed them for the ability to compete with FAM-Ala-pTyr-Lys-Pro-Phe-Gln-Asp-Leu-Ile-NH2, derived from Tyr631 of IL-4Rα, for binding to STAT6 using fluorescence polarization (FAM=5-carboxyfluorescein). The fluorescence polarization methodology was adapted from Wu et al., 1997, which is incorporated herein by reference. Amide bond replacements, cyclic amides, and cyclic lactams in the central part of the compound were explored.

Structure (SMILES)	IC50 [µM]
C/C(=C\C(=O)N[C@H](C(=O)N1CCC[C@H]1C(=O)N(C)C1CCCCC1)C(C)(C)C)c1ccc(OP(=O)(O)O)cc1 [PM-70I]	0.23 ± 0.14
C/C(=C\C(=O)N[C@H](C(=O)N[C@@H](C)C(=O)N(C)c1ccccc1)C(C)(C)C)c1ccc(OP(=O)(O)O)cc1 [PM-26I]	0.12 ± 0.016
C/C(=C\C(=O)N[C@H](C(=O)N1CCC[C@H]1C(=O)N(c1ccccc1)c1ccccc1)C(C)(C)C)c1ccc(OP(=O)(O)O)cc1 [PM-300H-B]	0.089 ± 0.01
C/C(=C\C(=O)N[C@H](C(=O)N1CCC[C@H]1C(=O)N(c1ccccc1)c1ccc(I)cc1)C(C)(C)C)c1ccc(OP(=O)(O)O)cc1 [PM-286H]	0.053 ± 0.01
CC(C)(C)[C@H](NC(=O)/C=C/c1ccc(OP(=O)(O)O)cc1)C(=O)N1CCC[C@H]1C(=O)N(c1ccccc1)c1ccc(I)cc1 [PM-287H]	0.073 ± 0.01
CC(C)(C)[C@H](NC(=O)/C=C/c1ccc(OP(=O)(O)O)cc1)C(=O)N1CCC[C@H]1C(=O)N(c1ccccc1)c1ccccc1 [PM-300H-A]	0.12 ± 0.04
C/C(=C\C(=O)N[C@H](C(=O)N1CCC[C@H]1C(=O)N(C)c1ccccc1)C(C)(C)C)c1ccc(OP(=O)(O)O)cc1 [PM-301H]	0.117 ± 0.03
C/C(=C\C(=O)N[C@H](C(=O)N1CCC[C@H]1C(=O)Nc1ccccc1)C(C)(C)C)c1ccc(OP(=O)(O)O)cc1 [PM-302H-A]	0.268 ± 0.07
CCN(CC)C(=O)[C@@H]1CCCN1C(=O)[C@@H](NC(=O)/C=C(\C)c1ccc(OP(=O)(O)O)cc1)C(C)(C)C [PM-302H-B]	0.377 ± 0.09

Same assay, conditions: select phosphate-containing STAT6 inhibitors; competition with FAM-Ala-pTyr-Lys-Pro-Phe-Gln-Asp-Leu-Ile-NH2

Structure (SMILES)	IC50 [µM]
C/C(=C\C(=O)NC1CCc2cccc3c2N(C1=O)[C@H](C(=O)N(C)c1ccccc1)C3)c1ccc(OP(=O)(O)O)cc1 (some centres unmarked) [PM-34I]	0.28 ± 0.06
C/C(=C\C(=O)N[C@H](C(=O)N1CCC[C@H]1C(=O)N1CCOCC1)C(C)(C)C)c1ccc(OP(=O)(O)O)cc1 [PM-67I-B]	0.103 ± 0.05
C/C(=C\C(=O)N[C@H](C(=O)N1CCC[C@H]1/C=C/CCc1ccccc1)C(C)(C)C)c1ccc(OP(=O)(O)O)cc1 [PM-9I]	0.771 ± 0.29
C/C(=C\C(=O)N[C@H](C(=O)N1CCC[C@H]1C(=O)N1CCc2ccccc21)C(C)(C)C)c1ccc(OP(=O)(O)O)cc1 [PM-59I]	0.26 ± 0.09
C/C(=C\C(=O)N[C@H](C(=O)N1CCC[C@H]1C(=O)N1CCCCC1)C(C)(C)C)c1ccc(OP(=O)(O)O)cc1 [PM-67I-A]	0.37 ± 0.09
C/C(=C\C(=O)N[C@H](C(=O)N1CCC[C@H]1C(=O)N1CCCc2ccccc21)C(C)(C)C)c1ccc(OP(=O)(O)O)cc1 [PM-87I]	0.24 ± 0.13
C/C(=C\C(=O)N[C@H](C(=O)N1CCC[C@H]1CCCCc1ccccc1)C(C)(C)C)c1ccc(OP(=O)(O)O)cc1 [PM-10I]	2.09 ± 0.93
C/C(=C\C(=O)N[C@H](C(=O)NC1CCCCN(c2ccccc2)C1=O)C(C)(C)C)c1ccc(OP(=O)(O)O)cc1 (some centres unmarked) [PM-60I]	2.33 ± 0.5
C/C(=C\C(=O)N[C@H](C(=O)N1CCC[C@H]1C(=O)N1CCN(C)CC1)C(C)(C)C)c1ccc(OP(=O)(O)O)cc1 [PM-67I-C]	1.9 ± 0.84
C/C(=C\C(=O)N[C@H]1CCCCN(CC(=O)N(C)c2ccccc2)C1=O)c1ccc(OP(=O)(O)O)cc1 [PM-28I]	0.63 ± 0.013
C/C(=C\C(=O)N[C@H](C(=O)N1CCC[C@H]1C(=O)N1CCc2ccccc2C1)C(C)(C)C)c1ccc(OP(=O)(O)O)cc1 [PM-71-A]	0.05 ± 0.04

Tested on: not listed separately
Assay: Toxicity: weights of mice during challenge with different doses
Assay type: in vivo
Conditions: different doses
Procedure: (§2) The issue of toxicity was addressed with the newer synthetic STAT6 peptidomimetic agents 86i and 43i in two ways. First, the inventors determined the effect of each inhibitor on asthma-related parameters in fungus-challenged mice. […] Second, the weights of mice were measured during challenge with the different doses of both STAT6 inhibitors.

Structure (SMILES)	toxicity by weight gain over the period of drug administration
C/C(=C\C(=O)N[C@H](C(=O)N1CCC[C@H]1C(=O)N1CCCc2ccccc21)C(C)(C)C)c1ccc(C(F)(F)P(=O)(OCOC(=O)C(C)(C)C)OCOC(=O)C(C)(C)C)cc1 [PM-86I]	no toxicity

Tested on: asthma-related parameters
Assay: Dose effect on asthma-related parameters in fungus-challenged mice
Assay type: in vivo
Conditions: dose of 5 micrograms
Procedure: as §2
Mice were challenged intranasally with a clinical isolate of 4×10^5 A. niger conidia every two days for a total of 8 challenges and treated with 50 μg of the indicated β-agonist, liposome vehicle (DLPC) and/or PM-242H (5 or 50 μg) intranasally as indicated and the allergic airway disease phenotype was determined according to previously described methods (Porter, P. et al. 2009).
Allergic airway disease was assessed as previously described (Porter, P. et al. 2009). Changes in respiratory system resistance (RRS) in response to intravenous acetylcholine challenge, bronchoalveolar lavage (BAL) fluid differential counts, and analysis of lung IL-4, IL-17A and IFN-γ producing cells by enzyme linked immunocell spot assay (ELISpot) were performed as previously described (Lee, S. H. et al. 2003; Polikepahad, S. et al. 2010).

Structure (SMILES)	inhibition of airway hyperresponsiveness	inhibition of airway inflammation	inhibition of lung IL-4 responses
C/C(=C\C(=O)N[C@H](C(=O)N1CCC[C@H]1C(=O)N1CCCc2ccccc21)C(C)(C)C)c1ccc(C(F)(F)P(=O)(OCOC(=O)C(C)(C)C)OCOC(=O)C(C)(C)C)cc1 [PM-86I]	intermediately effective	maximally effective	maximally effective

Same assay, conditions: dose of 50 micrograms

Structure (SMILES)	inhibition of airway hyperresponsiveness
C/C(=C\C(=O)N[C@H](C(=O)N1CCC[C@H]1C(=O)N1CCCc2ccccc21)C(C)(C)C)c1ccc(C(F)(F)P(=O)(OCOC(=O)C(C)(C)C)OCOC(=O)C(C)(C)C)cc1 [PM-86I]	maximally effective

Same assay, conditions: dose of 50 micrograms; to sham-treated levels

Structure (SMILES)	lung inflammation and IL-4 responses
C/C(=C\C(=O)N[C@H](C(=O)N1CCC[C@H]1C(=O)N1CCCc2ccccc21)C(C)(C)C)c1ccc(C(F)(F)P(=O)(OCOC(=O)C(C)(C)C)OCOC(=O)C(C)(C)C)cc1 [PM-86I]	rebound

Target: T1, STAT6
Assay: Inhibition of IL-4 (and IL-13) stimulated phosphorylation of STAT6 in Beas-2B cells, western blot
Assay type: cell-based
Set-up: endogenous in cells; host or cells: Beas-2B immortalized human airway cells
Conditions: dose response
Procedure: Compound PM-241H inhibited the phosphorylation of Tyr641 of STAT6 in Beas-2B cells stimulated with IL-4 and IL-13.
as §1
Cells or lungs were isolated and lysed in RIPA buffer (9806S; Cell Signaling, Danvers, Mass.), protein was quantified using BCA Protein Assay Reagent (23227; Thermo Fisher Scientific, Rockford, Ill.) and denatured in Laemmli sample buffer (161-0737; Bio-Rad, Hercules, Calif.) according to manufacturer's protocol. Proteins were separated on SDS-Page gels were hand-poured using a standard electrophoresis unit (Bio-Rad, Hecules, Calif.) and transferred to a membrane using iBlot Gel Transfer Device (IB 1001; Invitrogen, Grand Island, N.Y.). Membranes were blocked in 2% FBS PBST and probed for c-Src, p-c-Src, pErk1/2, Erk1/2, p STAT6, STAT6, pSTAT3, STAT3, pSTAT5, STAT5, Shp-1, and β-actin. Signal was detected with a ChemiDoc XRS+ system (BioRad; Hercules, Calif.).

Structure (SMILES)	IC50 [µM]
C/C(=C\C(=O)N[C@H](C(=O)N1CCC[C@H]1C(=O)N1CCc2ccccc2C1)C(C)(C)C)c1ccc(C(F)(F)P(=O)(OCOC(=O)C(C)(C)C)OCOC(=O)C(C)(C)C)cc1 [PM-81I]	0.05 to 0.5
C/C(=C\C(=O)N[C@H](C(=O)N1CCC[C@H]1C(=O)N1CCCc2ccccc21)C(C)(C)C)c1ccc(C(F)(F)P(=O)(OCOC(=O)C(C)(C)C)OCOC(=O)C(C)(C)C)cc1 [PM-86I]	0.05 to 0.5
C/C(=C\C(=O)N[C@H](C(=O)N1CCC[C@H]1C(=O)N1CCc2ccccc21)C(C)(C)C)c1ccc(C(F)(F)P(=O)(OCOC(=O)C(C)(C)C)OCOC(=O)C(C)(C)C)cc1 [PM-63I]	0.05 to 0.5
C/C(=C\C(=O)N[C@H](C(=O)N1CCC[C@H]1C(=O)N1CCCCC1)C(C)(C)C)c1ccc(C(F)(F)P(=O)(OCOC(=O)C(C)(C)C)OCOC(=O)C(C)(C)C)cc1 [PM-74I]	0.05
C/C(=C\C(=O)N[C@H](C(=O)N1CCC[C@H]1C(=O)N1CCCCc2ccccc21)C(C)(C)C)c1ccc(C(F)(F)P(=O)(OCOC(=O)C(C)(C)C)OCOC(=O)C(C)(C)C)cc1 [PM-80I]	0.05 to 0.5
